Experimental data published in publication PMC7347136 (PLoS ONE, 2020).

Tests used:
Experiment in all cases: Carna kinase panel screen
Assay type in all cases: biochemical
Details in all cases: read-out: % Inhibition ± SD
DYRK3 = biological target: T1, DYRK3 (Homo sapiens, UniProt O43781)
T1 construct: purchased Carna Biosciences
Method in brief: (§1)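 Each compound was tested at 10 concentrations with ATP set close to its Km value. Percentage inhibition at each concentration was calculated and the IC50 derived by four-parameter logistic fitting.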

KIT[T670I] = biological target: T2, KIT[T670I] (Homo sapiens, UniProt P10721, T670I)
T2 construct: purchased Carna Biosciences
Method in brief: (§2)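 With ATP concentrations near the respective Km, a 10-point titration of each compound was run. Percent inhibition values were fitted (four-parameter logistic) to determine IC50.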

RAF1 = biological target: T3, RAF1 (Homo sapiens, UniProt P04049)
T3 construct: purchased Carna Biosciences
Method in brief: as §2

Erk5 = biological target: T4, Erk5 (Homo sapiens, UniProt Q13164)
T4 construct: purchased Carna Biosciences
Method in brief: as §2

RET = biological target: T5, RET (Homo sapiens, UniProt P07949)
T5 construct: purchased Carna Biosciences
Method in brief: as §1

PKN1 = biological target: T6, PKN1 (Homo sapiens, UniProt Q16512)
T6 construct: purchased Carna Biosciences
Method in brief: as §2

EphA3 = biological target: T7, EphA3 (Homo sapiens, UniProt P29320)
T7 construct: purchased Carna Biosciences
Method in brief: as §2

TRKB = biological target: T8, TRKB (Homo sapiens, UniProt Q16620)
T8 construct: purchased Carna Biosciences
Method in brief: as §2

RON = biological target: T9, RON (Homo sapiens, UniProt Q04912)
T9 construct: purchased Carna Biosciences
Method in brief: as §2

p38g = biological target: T10, p38g (Homo sapiens, UniProt P53778)
T10 construct: purchased Carna Biosciences
Method in brief: as §2

EphB1 = biological target: T11, EphB1 (Homo sapiens, UniProt P54762)
T11 construct: purchased Carna Biosciences
Method in brief: as §2

JAK2 = biological target: T12, JAK2 (Homo sapiens, UniProt O60674)
T12 construct: purchased Carna Biosciences
T12 sequence (O60674 whole entry): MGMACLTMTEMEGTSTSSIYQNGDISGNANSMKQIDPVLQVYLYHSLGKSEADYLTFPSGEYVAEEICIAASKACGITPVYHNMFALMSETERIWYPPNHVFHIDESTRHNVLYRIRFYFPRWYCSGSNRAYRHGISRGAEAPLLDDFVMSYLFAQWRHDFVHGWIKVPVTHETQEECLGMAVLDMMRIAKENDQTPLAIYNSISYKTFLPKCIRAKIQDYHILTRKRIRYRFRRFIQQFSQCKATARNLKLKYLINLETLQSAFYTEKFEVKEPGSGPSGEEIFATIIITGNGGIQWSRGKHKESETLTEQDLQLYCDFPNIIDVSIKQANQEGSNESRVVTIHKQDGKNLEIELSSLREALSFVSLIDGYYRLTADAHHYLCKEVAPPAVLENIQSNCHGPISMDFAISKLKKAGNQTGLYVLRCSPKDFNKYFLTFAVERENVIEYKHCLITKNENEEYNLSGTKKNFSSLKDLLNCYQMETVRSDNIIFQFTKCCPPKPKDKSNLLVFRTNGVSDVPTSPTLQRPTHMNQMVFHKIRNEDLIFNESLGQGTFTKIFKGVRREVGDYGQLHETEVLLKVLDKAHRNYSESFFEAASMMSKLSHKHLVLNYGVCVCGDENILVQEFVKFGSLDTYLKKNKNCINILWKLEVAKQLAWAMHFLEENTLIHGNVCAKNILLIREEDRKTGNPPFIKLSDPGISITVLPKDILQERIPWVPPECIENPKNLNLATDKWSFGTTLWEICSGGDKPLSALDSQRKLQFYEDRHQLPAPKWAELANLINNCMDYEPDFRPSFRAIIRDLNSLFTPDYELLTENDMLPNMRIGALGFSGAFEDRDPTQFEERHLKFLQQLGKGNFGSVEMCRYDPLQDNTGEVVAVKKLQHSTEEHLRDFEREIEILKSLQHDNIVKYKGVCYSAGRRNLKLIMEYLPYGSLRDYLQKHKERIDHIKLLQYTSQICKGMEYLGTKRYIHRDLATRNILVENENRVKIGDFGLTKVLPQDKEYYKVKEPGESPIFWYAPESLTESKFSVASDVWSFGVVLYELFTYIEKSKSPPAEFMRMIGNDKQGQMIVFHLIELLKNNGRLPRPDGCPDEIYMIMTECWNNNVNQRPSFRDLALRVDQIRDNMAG
Method in brief: as §2

DYRK1B = biological target: T13, DYRK1B (Homo sapiens, UniProt Q9Y463)
T13 construct: purchased Carna Biosciences
Method in brief: as §2

SGK = biological target: T14, SGK (Homo sapiens, UniProt O00141)
T14 construct: purchased Carna Biosciences
Method in brief: as §2

CDK3 = biological target: T15, CDK3 (Homo sapiens, UniProt Q00526)
T15 construct: purchased Carna Biosciences
Method in brief: as §2

PKR = biological target: T16, PKR (Homo sapiens, UniProt P19525)
T16 construct: purchased Carna Biosciences
Method in brief: as §1

DYRK2 = biological target: T17, DYRK2 (Homo sapiens, UniProt Q92630)
T17 construct: purchased Carna Biosciences
Method in brief: as §2

MAP2K4 = biological target: T18, MAP2K4 (Homo sapiens, UniProt P45985)
T18 construct: purchased Carna Biosciences
Method in brief: as §2

MLK1 = biological target: T19, MLK1 (Homo sapiens, UniProt P80192)
T19 construct: purchased Carna Biosciences
T19 sequence (P80192 whole entry): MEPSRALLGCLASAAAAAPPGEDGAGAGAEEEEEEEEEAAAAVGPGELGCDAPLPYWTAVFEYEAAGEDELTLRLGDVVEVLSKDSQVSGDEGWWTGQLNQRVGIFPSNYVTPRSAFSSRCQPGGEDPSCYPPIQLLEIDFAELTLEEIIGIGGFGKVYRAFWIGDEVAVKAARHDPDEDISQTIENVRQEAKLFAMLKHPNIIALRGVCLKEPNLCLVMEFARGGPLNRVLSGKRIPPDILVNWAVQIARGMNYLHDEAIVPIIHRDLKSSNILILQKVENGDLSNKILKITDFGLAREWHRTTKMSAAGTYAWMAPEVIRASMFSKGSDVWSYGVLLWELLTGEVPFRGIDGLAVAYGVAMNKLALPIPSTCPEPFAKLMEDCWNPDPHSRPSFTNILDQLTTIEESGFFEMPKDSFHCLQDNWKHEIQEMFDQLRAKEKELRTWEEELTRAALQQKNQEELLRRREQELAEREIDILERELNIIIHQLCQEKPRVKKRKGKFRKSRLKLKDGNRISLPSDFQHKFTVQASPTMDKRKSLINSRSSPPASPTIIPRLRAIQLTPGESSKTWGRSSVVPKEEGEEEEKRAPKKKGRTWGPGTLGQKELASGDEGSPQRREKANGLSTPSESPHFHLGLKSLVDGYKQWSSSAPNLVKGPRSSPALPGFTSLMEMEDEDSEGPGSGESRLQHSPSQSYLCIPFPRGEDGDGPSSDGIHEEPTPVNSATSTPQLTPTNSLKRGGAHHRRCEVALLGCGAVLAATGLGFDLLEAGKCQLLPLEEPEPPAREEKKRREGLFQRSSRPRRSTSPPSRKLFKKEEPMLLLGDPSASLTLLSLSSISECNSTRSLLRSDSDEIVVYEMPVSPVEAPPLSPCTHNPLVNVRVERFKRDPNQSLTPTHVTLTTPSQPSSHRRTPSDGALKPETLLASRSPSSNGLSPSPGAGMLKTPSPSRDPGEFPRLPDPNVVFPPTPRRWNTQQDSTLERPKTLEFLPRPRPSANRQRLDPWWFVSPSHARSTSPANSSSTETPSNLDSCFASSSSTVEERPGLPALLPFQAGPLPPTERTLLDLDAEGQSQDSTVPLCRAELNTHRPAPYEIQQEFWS
Method in brief: as §2

MUSK = biological target: T20, MUSK (Homo sapiens, UniProt O15146)
T20 construct: purchased Carna Biosciences
Method in brief: as §2

DDR1 = biological target: T21, DDR1 (Homo sapiens, UniProt Q08345)
T21 construct: purchased Carna Biosciences
Method in brief: as §1

HIPK3 = biological target: T22, HIPK3 (Homo sapiens, UniProt Q9H422)
T22 construct: purchased Carna Biosciences
Method in brief: as §2

SYK = biological target: T23, SYK (Homo sapiens, UniProt P43405)
T23 construct: purchased Carna Biosciences
Method in brief: as §2

HIPK2 = biological target: T24, HIPK2 (Homo sapiens, UniProt Q9H2X6)
T24 construct: purchased Carna Biosciences
T24 sequence (Q9H2X6 whole entry): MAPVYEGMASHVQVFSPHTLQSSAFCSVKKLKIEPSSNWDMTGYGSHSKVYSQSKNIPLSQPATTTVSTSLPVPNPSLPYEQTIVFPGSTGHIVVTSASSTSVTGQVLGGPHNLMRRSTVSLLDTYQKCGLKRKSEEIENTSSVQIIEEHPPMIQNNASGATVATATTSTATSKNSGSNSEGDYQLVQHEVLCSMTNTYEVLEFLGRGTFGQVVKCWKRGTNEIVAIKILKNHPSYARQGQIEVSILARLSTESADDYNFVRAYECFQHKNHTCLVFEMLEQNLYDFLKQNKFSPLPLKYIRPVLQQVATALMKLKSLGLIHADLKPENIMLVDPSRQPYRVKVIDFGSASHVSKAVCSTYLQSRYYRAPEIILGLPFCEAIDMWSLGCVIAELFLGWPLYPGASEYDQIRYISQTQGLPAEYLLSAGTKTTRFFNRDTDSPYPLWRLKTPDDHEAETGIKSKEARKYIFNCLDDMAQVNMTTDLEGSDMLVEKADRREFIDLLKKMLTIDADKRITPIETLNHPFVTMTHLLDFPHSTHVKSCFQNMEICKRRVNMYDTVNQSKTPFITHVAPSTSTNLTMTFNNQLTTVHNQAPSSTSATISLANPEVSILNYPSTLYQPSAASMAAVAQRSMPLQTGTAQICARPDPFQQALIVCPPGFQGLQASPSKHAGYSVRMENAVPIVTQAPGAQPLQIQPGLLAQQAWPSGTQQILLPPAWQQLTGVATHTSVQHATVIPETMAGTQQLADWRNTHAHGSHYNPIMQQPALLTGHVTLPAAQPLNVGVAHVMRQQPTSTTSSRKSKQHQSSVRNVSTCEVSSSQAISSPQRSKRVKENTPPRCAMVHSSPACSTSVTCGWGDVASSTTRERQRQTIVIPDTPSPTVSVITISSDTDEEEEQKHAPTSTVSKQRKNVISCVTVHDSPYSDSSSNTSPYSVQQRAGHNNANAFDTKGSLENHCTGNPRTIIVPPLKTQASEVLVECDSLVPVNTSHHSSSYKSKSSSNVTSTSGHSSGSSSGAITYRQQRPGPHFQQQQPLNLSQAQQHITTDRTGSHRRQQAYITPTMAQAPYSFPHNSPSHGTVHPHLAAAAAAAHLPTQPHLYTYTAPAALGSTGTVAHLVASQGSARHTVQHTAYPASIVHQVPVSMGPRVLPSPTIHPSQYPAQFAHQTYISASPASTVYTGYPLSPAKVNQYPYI
Method in brief: as §2

FGFR3 = biological target: T25, FGFR3 (Homo sapiens, UniProt P22607)
T25 construct: purchased Carna Biosciences
Method in brief: as §2

LYNb = biological target: T26, LYNb (Homo sapiens, UniProt P07948)
T26 construct: purchased Carna Biosciences
Method in brief: as §2

p38b = biological target: T27, p38b (Homo sapiens, UniProt Q15759)
T27 construct: purchased Carna Biosciences
Method in brief: as §2

NDR1 = biological target: T28, NDR1 (Homo sapiens, UniProt Q15208)
T28 construct: purchased Carna Biosciences
Method in brief: as §2

MAP2K5 = biological target: T29, MAP2K5 (Homo sapiens, UniProt Q13163)
T29 construct: purchased Carna Biosciences
Method in brief: as §1

SGK2 = biological target: T30, SGK2 (Homo sapiens, UniProt Q9HBY8)
T30 construct: purchased Carna Biosciences
T30 sequence (Q9HBY8 whole entry): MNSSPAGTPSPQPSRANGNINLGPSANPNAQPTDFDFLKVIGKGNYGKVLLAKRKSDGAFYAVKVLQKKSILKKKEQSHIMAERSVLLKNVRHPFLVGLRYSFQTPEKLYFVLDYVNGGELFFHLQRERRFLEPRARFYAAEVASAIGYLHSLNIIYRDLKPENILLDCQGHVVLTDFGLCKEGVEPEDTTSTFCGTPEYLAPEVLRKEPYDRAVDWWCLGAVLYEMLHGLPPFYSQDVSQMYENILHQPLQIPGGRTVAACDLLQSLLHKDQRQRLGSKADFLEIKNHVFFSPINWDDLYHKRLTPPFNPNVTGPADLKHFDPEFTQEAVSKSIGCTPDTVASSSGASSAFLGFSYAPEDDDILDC
Method in brief: as §2

SRC = biological target: T31, SRC (Homo sapiens, UniProt P12931)
T31 construct: purchased Carna Biosciences
T31 sequence (P12931 whole entry): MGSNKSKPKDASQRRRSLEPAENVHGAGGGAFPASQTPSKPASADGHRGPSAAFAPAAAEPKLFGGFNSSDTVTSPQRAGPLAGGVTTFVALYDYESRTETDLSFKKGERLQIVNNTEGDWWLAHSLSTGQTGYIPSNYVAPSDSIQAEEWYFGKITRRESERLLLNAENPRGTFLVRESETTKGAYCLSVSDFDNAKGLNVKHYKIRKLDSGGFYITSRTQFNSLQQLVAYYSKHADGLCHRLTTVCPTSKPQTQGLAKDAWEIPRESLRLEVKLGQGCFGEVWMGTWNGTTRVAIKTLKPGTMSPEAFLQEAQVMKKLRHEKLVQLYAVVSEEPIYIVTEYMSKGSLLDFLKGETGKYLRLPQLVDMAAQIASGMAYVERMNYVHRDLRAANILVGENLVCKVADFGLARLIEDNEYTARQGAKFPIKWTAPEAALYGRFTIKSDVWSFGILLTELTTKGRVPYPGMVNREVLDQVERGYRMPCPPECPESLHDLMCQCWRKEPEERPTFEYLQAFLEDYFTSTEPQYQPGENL
Method in brief: as §2

FMS = biological target: T32, FMS (Homo sapiens, UniProt P07333)
T32 construct: purchased Carna Biosciences
Method in brief: as §2

TRKA = biological target: T33, TRKA (Homo sapiens, UniProt P04629)
T33 construct: purchased Carna Biosciences
Method in brief: as §2

YES = biological target: T34, YES (Homo sapiens, UniProt P07947)
T34 construct: purchased Carna Biosciences
T34 sequence (P07947 whole entry): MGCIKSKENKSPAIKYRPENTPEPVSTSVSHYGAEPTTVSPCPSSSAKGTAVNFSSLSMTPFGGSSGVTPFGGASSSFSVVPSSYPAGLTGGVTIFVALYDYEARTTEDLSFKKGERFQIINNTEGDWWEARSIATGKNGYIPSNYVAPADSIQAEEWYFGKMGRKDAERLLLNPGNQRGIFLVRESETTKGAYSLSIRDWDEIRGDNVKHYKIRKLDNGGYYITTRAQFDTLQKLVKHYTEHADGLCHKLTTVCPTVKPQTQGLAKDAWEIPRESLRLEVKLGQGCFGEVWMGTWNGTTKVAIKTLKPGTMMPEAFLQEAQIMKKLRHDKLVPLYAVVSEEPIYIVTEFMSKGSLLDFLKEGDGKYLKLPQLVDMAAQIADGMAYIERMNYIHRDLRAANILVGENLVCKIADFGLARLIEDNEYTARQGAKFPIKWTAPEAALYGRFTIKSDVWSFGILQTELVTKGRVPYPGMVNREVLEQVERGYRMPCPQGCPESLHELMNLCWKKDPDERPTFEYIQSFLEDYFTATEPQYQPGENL
Method in brief: as §2

KIT[V560G] = biological target: T35, KIT[V560G] (Homo sapiens, UniProt P10721, V560G)
T35 construct: purchased Carna Biosciences
Method in brief: as §1

BRAF[V600E] = biological target: T36, BRAF[V600E] (Homo sapiens, UniProt P15056, V600E)
T36 construct: purchased Carna Biosciences
Method in brief: as §2

AurB = biological target: T37, AurB (Homo sapiens, UniProt Q96GD4)
T37 construct: purchased Carna Biosciences
Method in brief: as §2

FLT3 = biological target: T38, FLT3 (Homo sapiens, UniProt P36888)
T38 construct: purchased Carna Biosciences
Method in brief: as §1

JAK3 = biological target: T39, JAK3 (Homo sapiens, UniProt P52333)
T39 construct: purchased Carna Biosciences
Method in brief: as §2

DYRK1A = biological target: T40, DYRK1A (Homo sapiens, UniProt Q13627)
T40 construct: purchased Carna Biosciences
Method in brief: as §2

DAPK1 = biological target: T41, DAPK1 (Homo sapiens, UniProt P53355)
T41 construct: purchased Carna Biosciences
Method in brief: as §1

ROCK1 = biological target: T42, ROCK1 (Homo sapiens, UniProt Q13464)
T42 construct: purchased Carna Biosciences
Method in brief: as §2

PAK2 = biological target: T43, PAK2 (Homo sapiens, UniProt Q13177)
T43 construct: purchased Carna Biosciences
Method in brief: as §2

## CC[C@H](Nc1nc(NCc2cnc(C)cc2C)c2ncn(C(C)C)c2n1)[C@@H](C)O [Fadraciclib, 2-pentanol, 3-[[6-[[(4,6-dimethyl-3-pyridinyl)methyl]amino]-9-(1-methylethyl)-9Hpurin-2-yl]amino]-, (2R,3S)]
DYRK3
  inhibition at 1 µM: 0.9%
KIT[T670I]
  inhibition at 1 µM: -9.2 ± 0.2%
RAF1
  inhibition at 1 µM: -1.1 ± 0.1%
Erk5
  inhibition at 1 µM: 3.7 ± 0.1%
RET
  inhibition at 1 µM: 3.4 ± 0.1%
PKN1
  inhibition at 1 µM: -17.7 ± 0.1%
EphA3
  inhibition at 1 µM: 1.6 ± 0.1%
TRKB
  inhibition at 1 µM: -11.4 ± 0.4%
RON
  inhibition at 1 µM: 1.6 ± 0.1%
p38g
  inhibition at 1 µM: -0.6%
EphB1
  inhibition at 1 µM: 3.9 ± 0.1%
JAK2
  inhibition at 1 µM: 6.1 ± 0.2%
DYRK1B
  inhibition at 1 µM: 15.5 ± 1.3%
SGK
  inhibition at 1 µM: -0.8%
CDK3
  inhibition at 1 µM: 95.9%
PKR
  inhibition at 1 µM: 1.1%
DYRK2
  inhibition at 1 µM: -1.8 ± 0.1%
MAP2K4
  inhibition at 1 µM: -2.7 ± 0.1%
MLK1
  inhibition at 1 µM: -11.2 ± 0.1%
MUSK
  inhibition at 1 µM: 11.4 ± 0.3%
DDR1
  inhibition at 1 µM: -9.3 ± 0.1%
HIPK3
  inhibition at 1 µM: -1.1%
SYK
  inhibition at 1 µM: 2.2 ± 0.1%
HIPK2
  inhibition at 1 µM: 2.5 ± 0.1%
FGFR3
  inhibition at 1 µM: -5.6 ± 0.2%
LYNb
  inhibition at 1 µM: -8.7 ± 0.1%
p38b
  inhibition at 1 µM: -19 ± 0.2%
NDR1
  inhibition at 1 µM: 2 ± 0.1%
MAP2K5
  inhibition at 1 µM: 11.9 ± 1.6%
SGK2
  inhibition at 1 µM: 0.9%
SRC
  inhibition at 1 µM: 2.7%
FMS
  inhibition at 1 µM: -6.3 ± 0.1%
TRKA
  inhibition at 1 µM: -10.3 ± 0.3%
YES
  inhibition at 1 µM: -7 ± 0.1%
KIT[V560G]
  inhibition at 1 µM: 2.5 ± 0.1%
BRAF[V600E]
  inhibition at 1 µM: -1.9 ± 0.1%
AurB
  inhibition at 1 µM: 4.2 ± 0.2%
FLT3
  inhibition at 1 µM: -8.7 ± 0.1%
JAK3
  inhibition at 1 µM: -9.5%
DYRK1A
  inhibition at 1 µM: 5.5 ± 0.7%
DAPK1
  inhibition at 1 µM: -8.8 ± 0.1%
ROCK1
  inhibition at 1 µM: -1.3%
PAK2
  inhibition at 1 µM: -2.9%
